Test results taken from ChEMBL document CHEMBL1142001, “Novel and orally bioavailable inducible nitric oxide synthase inhibitors: synthesis and evaluation of optically active 4,5-dialkyl-2-iminoselenazolidine derivatives” (Bioorg Med Chem Lett, 2005).

Assays:
[1] = Oral bioavailability of compound (0.3 mg/kg) on oral administration to rats; format: ADME, organism-based; conditions: rat, in vivo, read-out: Bioavailabiility
[2] = Half life value of compound (0.3 mg/kg) on oral administration to rats; format: ADME, organism-based; conditions: rat, in vivo
[3] = system: Mus musculus; test: Inhibitory dose (p.o.) tested against plasma nitrite/nitrate levels in LPS-treated mice; format: functional; conditions: po, read-out: ID50 (the source's name)
[4] = Area under concentration time curve value in rat was determined at a intravenous dosage of 0.3 mg/kg; format: ADME, organism-based; design: dose 0.3 mg/kg, route intravenous; conditions: in vivo
[5] = Area under the concentration time curve value of compound was determined in rats after oral dosage of 0.3 mg/kg; format: ADME, organism-based; design: dose 0.3 mg/kg, route oral; conditions: rat, in vivo
[6] = target: Nitric oxide synthase, inducible (Homo sapiens, UniProt P35228); test: Inhibitory concentration against inducible […]
Sequence of Nitric oxide synthase, inducible (P35228 whole entry): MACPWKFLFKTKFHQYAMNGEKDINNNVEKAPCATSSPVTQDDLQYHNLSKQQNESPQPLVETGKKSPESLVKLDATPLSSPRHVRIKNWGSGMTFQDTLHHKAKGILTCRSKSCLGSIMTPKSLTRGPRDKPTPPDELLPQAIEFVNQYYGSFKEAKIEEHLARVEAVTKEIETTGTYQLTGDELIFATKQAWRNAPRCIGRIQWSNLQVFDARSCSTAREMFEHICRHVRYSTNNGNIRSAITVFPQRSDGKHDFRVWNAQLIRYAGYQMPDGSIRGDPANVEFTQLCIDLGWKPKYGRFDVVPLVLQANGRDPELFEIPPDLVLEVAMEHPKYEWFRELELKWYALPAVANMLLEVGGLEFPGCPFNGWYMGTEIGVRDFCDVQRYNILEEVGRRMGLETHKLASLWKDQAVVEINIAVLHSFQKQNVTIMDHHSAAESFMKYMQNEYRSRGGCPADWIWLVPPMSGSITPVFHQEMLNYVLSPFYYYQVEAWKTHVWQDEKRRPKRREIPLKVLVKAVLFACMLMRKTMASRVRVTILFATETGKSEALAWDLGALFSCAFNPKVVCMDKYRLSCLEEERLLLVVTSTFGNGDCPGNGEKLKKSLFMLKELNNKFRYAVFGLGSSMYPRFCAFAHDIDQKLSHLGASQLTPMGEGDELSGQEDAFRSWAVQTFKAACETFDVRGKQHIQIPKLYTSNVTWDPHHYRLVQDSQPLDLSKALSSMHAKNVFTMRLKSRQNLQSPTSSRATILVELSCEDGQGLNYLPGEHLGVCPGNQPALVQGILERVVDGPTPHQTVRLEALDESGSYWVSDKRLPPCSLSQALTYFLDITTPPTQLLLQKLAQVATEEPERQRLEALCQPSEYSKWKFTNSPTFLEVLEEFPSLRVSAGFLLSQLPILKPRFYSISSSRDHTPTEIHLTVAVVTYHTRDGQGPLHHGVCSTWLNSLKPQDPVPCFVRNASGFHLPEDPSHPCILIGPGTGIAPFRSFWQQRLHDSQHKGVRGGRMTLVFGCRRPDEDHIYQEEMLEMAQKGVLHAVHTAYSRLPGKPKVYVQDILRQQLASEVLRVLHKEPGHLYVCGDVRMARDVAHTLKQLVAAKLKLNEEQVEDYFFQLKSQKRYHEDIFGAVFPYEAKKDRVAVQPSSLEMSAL

[7] = Tmax of compound (0.3 mg/kg) on oral administration to rats; format: ADME, organism-based; conditions: rat, in vivo
[8] = target: Nitric oxide synthase 1 (Homo sapiens, UniProt P29475); test: Inhibitory concentration against neuronal […]
Sequence of Nitric oxide synthase 1 (P29475 whole entry): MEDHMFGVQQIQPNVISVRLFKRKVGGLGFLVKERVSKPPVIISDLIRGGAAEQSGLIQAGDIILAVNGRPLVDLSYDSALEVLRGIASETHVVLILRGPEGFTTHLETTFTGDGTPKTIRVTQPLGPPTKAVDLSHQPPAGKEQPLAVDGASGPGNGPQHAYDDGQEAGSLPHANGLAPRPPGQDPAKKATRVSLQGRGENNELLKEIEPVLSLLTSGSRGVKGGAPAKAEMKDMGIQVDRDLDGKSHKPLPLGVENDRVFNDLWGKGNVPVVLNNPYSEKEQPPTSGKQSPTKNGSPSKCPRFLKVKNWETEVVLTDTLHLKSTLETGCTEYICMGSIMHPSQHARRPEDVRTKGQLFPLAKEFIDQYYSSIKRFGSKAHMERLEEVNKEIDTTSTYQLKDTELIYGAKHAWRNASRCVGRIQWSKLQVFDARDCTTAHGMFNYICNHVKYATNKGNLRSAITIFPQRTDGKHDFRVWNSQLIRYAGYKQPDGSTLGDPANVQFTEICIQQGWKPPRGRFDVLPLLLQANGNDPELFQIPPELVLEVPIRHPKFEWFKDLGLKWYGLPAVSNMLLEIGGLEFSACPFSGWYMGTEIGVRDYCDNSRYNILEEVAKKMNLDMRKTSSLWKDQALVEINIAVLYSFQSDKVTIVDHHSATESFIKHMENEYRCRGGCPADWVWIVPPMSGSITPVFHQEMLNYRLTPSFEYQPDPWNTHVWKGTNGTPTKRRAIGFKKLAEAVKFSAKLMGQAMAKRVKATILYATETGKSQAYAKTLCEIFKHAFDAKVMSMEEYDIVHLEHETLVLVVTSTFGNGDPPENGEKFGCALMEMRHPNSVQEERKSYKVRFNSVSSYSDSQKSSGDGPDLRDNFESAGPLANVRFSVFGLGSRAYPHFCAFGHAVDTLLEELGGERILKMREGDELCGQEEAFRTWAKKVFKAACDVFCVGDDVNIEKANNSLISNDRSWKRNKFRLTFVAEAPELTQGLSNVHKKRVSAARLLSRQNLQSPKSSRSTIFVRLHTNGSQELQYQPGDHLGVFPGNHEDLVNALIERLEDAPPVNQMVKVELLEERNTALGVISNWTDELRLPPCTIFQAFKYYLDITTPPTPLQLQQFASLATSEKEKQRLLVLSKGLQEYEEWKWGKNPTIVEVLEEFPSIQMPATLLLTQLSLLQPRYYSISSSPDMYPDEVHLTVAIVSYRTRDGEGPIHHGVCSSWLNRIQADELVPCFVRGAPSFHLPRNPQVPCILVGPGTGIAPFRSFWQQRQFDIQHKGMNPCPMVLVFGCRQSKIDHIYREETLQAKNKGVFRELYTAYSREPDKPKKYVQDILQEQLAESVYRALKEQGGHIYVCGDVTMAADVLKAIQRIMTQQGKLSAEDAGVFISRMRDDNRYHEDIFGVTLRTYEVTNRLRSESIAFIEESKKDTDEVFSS

[9] = Clearance rate (0.3 mg/kg) on intravenous administration to rats; format: ADME, organism-based; conditions: rat, in vivo
[10] = Cmax of compound (0.3 mg/kg) on oral administration to rats; format: ADME, organism-based; design: dose 0.3 mg/kg, route oral; conditions: rat, in vivo
[11] = Half life value of compound (0.3 mg/kg) on intravenous administration to […]; format: ADME, organism-based; conditions: rat, in vivo

CC[C@H]1[Se]C(N)=N[C@@H]1C
bioavailability [1]: 73% | half-life [2]: 72 min | ED50 [3]: 0.3 mg/kg | AUC [4]: 117 ng·h/mL | AUC [5]: 45 ng·h/mL | IC50 [6]: 9.3 nM | Tmax [7]: 30 min | IC50 [8]: 790 nM | clearance [9]: 55.5 mL/min/kg | Cmax [10]: 45 ng/mL | half-life [11]: 57 min

CC[C@@H]1[Se]C(N)=N[C@H]1C
IC50 [6]: 34 nM | IC50 [8]: 350 nM

CC[C@@H]1N=C(N)[Se][C@@H]1C
IC50 [6]: 80 nM | IC50 [8]: 740 nM

CC[C@H]1N=C(N)[Se][C@H]1C
IC50 [6]: 21 nM | IC50 [8]: 280 nM

CC[C@H]1[Se]C(N)=N[C@H]1C
IC50 [6]: 340 nM | IC50 [8]: 6900 nM

CC[C@@H]1N=C(N)[Se][C@H]1C
IC50 [6]: 21 nM | IC50 [8]: 280 nM

CC[C@H]1N=C(N)[Se][C@@H]1C
IC50 [6]: 9.4 nM | IC50 [8]: 92 nM

CC[C@H]1SC(N)=N[C@@H]1C
IC50 [6]: 6.6 nM | IC50 [8]: 380 nM

CC[C@@H]1[Se]C(N)=N[C@@H]1C
IC50 [6]: 66 nM | IC50 [8]: 1300 nM
